Test results: the supplement of paper PMC8960247
± gives the standard error.

Legend:
621-102 (TSC2-deficient) [1] = experiment: relative viability vs DMSO; higher = less cytotoxic; details: serum: 10% FBS, 72 h
621-103 (TSC2-rescued) = experiment: as above; details: serum: 10% FBS, 72 h
UMB1949 (TSC2-deficient) = experiment: relative viability vs DMSO (fraction); higher = less cytotoxic; details: serum: 0.1% FBS, 72 h;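 also: renal angiomyolipoma cell lines screened in 384-well plates, viability normalized per plate to DMSO-treated cells, each plate carrying 50 nM rapamycin and 1 µM staurosporine controls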
621-102 (TSC2-deficient) [2] = experiment: as above; details: serum: 0.1% FBS, 72 h

Structure (SMILES)	relative viability (621-102 (TSC2-deficient) [1]; 0.0001 µM)	relative viability (621-102 (TSC2-deficient) [1]; 0.001 µM)	relative viability (621-102 (TSC2-deficient) [1]; 0.01 µM)	relative viability (621-102 (TSC2-deficient) [1]; 0.1 µM)	relative viability (621-102 (TSC2-deficient) [1]; 1 µM)	relative viability (621-102 (TSC2-deficient) [1]; 10 µM)	relative viability (621-103 (TSC2-rescued); 0.0001 µM)	relative viability (621-103 (TSC2-rescued); 0.001 µM)	relative viability (621-103 (TSC2-rescued); 0.01 µM)	relative viability (621-103 (TSC2-rescued); 0.1 µM)	relative viability (621-103 (TSC2-rescued); 1 µM)	relative viability (621-103 (TSC2-rescued); 10 µM)	relative viability (UMB1949 (TSC2-deficient); 0.0128 nM)	relative viability (UMB1949 (TSC2-deficient); 0.064 nM)	relative viability (UMB1949 (TSC2-deficient); 0.32 nM)	relative viability (UMB1949 (TSC2-deficient); 1.6 nM)	relative viability (UMB1949 (TSC2-deficient); 8 nM)	relative viability (UMB1949 (TSC2-deficient); 40 nM)	relative viability (UMB1949 (TSC2-deficient); 200 nM)	relative viability (UMB1949 (TSC2-deficient); 1000 nM)	relative viability (UMB1949 (TSC2-deficient); 5000 nM)	relative viability (621-102 (TSC2-deficient) [2]; 0.0128 nM)	relative viability (621-102 (TSC2-deficient) [2]; 0.064 nM)	relative viability (621-102 (TSC2-deficient) [2]; 0.32 nM)	relative viability (621-102 (TSC2-deficient) [2]; 1.6 nM)	relative viability (621-102 (TSC2-deficient) [2]; 8 nM)	relative viability (621-102 (TSC2-deficient) [2]; 40 nM)	relative viability (621-102 (TSC2-deficient) [2]; 200 nM)	relative viability (621-102 (TSC2-deficient) [2]; 1000 nM)	relative viability (621-102 (TSC2-deficient) [2]; 5000 nM)
CCC[C@H](Nc1nc(-c2ccc(NC(=O)NCC)c(OC)c2)ncc1C)c1cccnc1 [CYT997]	87.8 ± 1.3%	95.67 ± 0.75%	48.6 ± 1.6%	39.1 ± 0.56%	36.2 ± 0.95%	41 ± 1.1%	82.2 ± 1.5%	78.28 ± 0.4%	40.2 ± 0.82%	26.3 ± 2.2%	24.3 ± 0.3%	25.4 ± 2%	0.622	0.0694	0.00719	0.0079	0.00595	0.00742	0.00575	0.00558	0.00511	–	–	–	–	–	–	–	–	–
Cc1ccc(NC(=O)c2ccc(CN3CCN(C)CC3)cc2)cc1Nc1nc(-c2cccnc2)cs1 [Masitinib(AB1010)]	–	–	–	–	–	–	–	–	–	–	–	–	1.09	1.21	1.16	1.18	1.09	1.19	0.96	0.156	0.0043	0.869	0.9	0.886	0.951	0.909	0.82	0.683	0.277	0.0135
CCS(=O)(=O)c1cccc(-c2cc(C(=O)NC3CCN(C)CC3)c(C)c3[nH]c4ncc(C)cc4c23)c1 [TAK-901]	94.4 ± 2%	98.3 ± 4.1%	90 ± 2.7%	75.451 ± 0.045%	45.4 ± 2%	7.72 ± 0.56%	108 ± 2.1%	97 ± 2%	81.4 ± 1.8%	72.5 ± 1.6%	28.2 ± 2.3%	5.6 ± 0.7%	0.561	0.0956	0.0821	0.0562	0.0574	0.0411	0.00479	0.00175	0.0045	–	–	–	–	–	–	–	–	–
CO[C@H]1C[C@@H]2CC[C@@H](C)[C@@](O)(O2)C(=O)C(=O)N2CCCC[C@H]2C(=O)O[C@H]([C@H](C)C[C@@H]2CC[C@@H](OCCO)[C@H](OC)C2)CC(=O)[C@H](C)/C=C(\C)[C@@H](O)[C@@H](OC)C(=O)[C@H](C)C[C@H](C)/C=C/C=C/C=C/1C [Everolimus(RAD001)]	–	–	–	–	–	–	–	–	–	–	–	–	1	0.899	0.985	0.9	0.936	0.847	0.781	0.401	0.461	0.753	0.734	0.706	0.696	0.681	0.543	0.391	0.325	0.276
CC(C)[C@H](C(=O)Nc1ccc(C(=O)NO)cc1)c1ccccc1 [AR-42]	–	–	–	–	–	–	–	–	–	–	–	–	1.03	1.11	1.12	1.07	0.89	0.548	0.0124	0.00772	0.00643	0.993	1.12	1.01	1.02	0.76	0.563	0.416	0.389	0.0646
CC(C)c1cc(C(C)C)c(CC(=O)NS(=O)(=O)Oc2c(C(C)C)cccc2C(C)C)c(C(C)C)c1 [Avasimibe]	–	–	–	–	–	–	–	–	–	–	–	–	1.13	1.12	1.19	1.06	1.08	1.1	1.02	0.00835	0.00834	1.07	0.675	1.2	1.1	1.08	1.53	1.4	0.32	0.0125
CC[C@@]1(O)C(=O)OCc2c1cc1n(c2=O)Cc2cc3ccccc3nc2-1 [Camptothecin]	–	–	–	–	–	–	–	–	–	–	–	–	0.995	0.913	0.83	0.129	0.0117	0.00478	0.00188	0.00182	0.00462	0.843	0.818	0.747	0.485	0.166	0.178	0.00844	0.00416	0.00456
